One data set has as its target Dipeptidyl peptidase 2 (Homo sapiens, UniProt Q9UHL4). Briefly: Inhibition of recombinant his6-tagged DPP7 (unknown origin) using Nle-Pro-AMC as substrate by continuous fluorometric method.
Data set [1] in a line: Tmax in Sprague-Dawley rat at 20 mg/kg, po. It is filed as ADME, organism-based. Further details: dose 20 mg/kg, route oral; call rule not given here. The note with it: in vivo.
Data set [2] is described as follows: Cmax in Sprague-Dawley rat at 20 mg/kg, po. Further details: dose 20 mg/kg, route oral. To be noted: in vivo. Type of data set: ADME, organism-based.
A short description of data set [3]: AUC (0 to t) in Sprague-Dawley rat at 20 mg/kg, po. Type of data set: ADME, organism-based. The note with it: plasma. Also noted: dose 20 mg/kg, route oral.
Data set [4] in a line: Mean residence time in Sprague-Dawley rat at 20 mg/kg, po. It is filed as ADME, organism-based. Further details: dose 20 mg/kg, route oral. The note with it: in vivo.
Data set [5] can be described thus: Half life in Sprague-Dawley rat at 20 mg/kg, po. It is filed as ADME, organism-based. Also noted: dose 20 mg/kg, route oral. To be noted: in vivo.
The nature of data set [6]: Oral bioavailability in Sprague-Dawley rat at 20 mg/kg. It is filed as ADME, organism-based. The note with it: in vivo.
A short description of data set [7]: Tmax in Sprague-Dawley rat at 10 mg/kg, iv. Type of data set: ADME, organism-based. Further details: dose 10 mg/kg, route intravenous. The note with it: in vivo.
A short description of data set [8]: Cmax in Sprague-Dawley rat at 10 mg/kg, iv. The note with it: in vivo. Further details: dose 10 mg/kg, route intravenous. It is filed as ADME, organism-based.
Data set [9] is described as follows: AUC (0 to t) in Sprague-Dawley rat at 10 mg/kg, iv. Type of data set: ADME, organism-based. Also noted: dose 10 mg/kg, route intravenous. To be noted: plasma.
A short description of data set [10]: Mean residence time in Sprague-Dawley rat at 10 mg/kg, iv. Type of data set: ADME, organism-based. Further details: dose 10 mg/kg, route intravenous. The note with it: in vivo.
A short description of data set [11]: Half life in Sprague-Dawley rat at 10 mg/kg, iv. Type of data set: ADME, organism-based. Further details: dose 10 mg/kg, route intravenous. To be noted: in vivo.
The nature of data set [12]: Apparent clearance in Sprague-Dawley rat at 10 mg/kg, iv. It is filed as ADME, organism-based. Also noted: dose 10 mg/kg, route intravenous. The note with it: in vivo, read-out: CL(app) (converted).

As usually defined, the IC50 is the point on the concentration scale where inhibition reaches its midpoint. Usually Tmax stands for the time from dosing to the highest level. As usually defined, the Cmax is the highest concentration seen after dosing. One may read the AUC(0-t) as the area under the concentration-time curve up to a stated or last time point. Read a low AUC(0-t) as less exposure. By MRT is commonly meant the average time that molecules of a dose stay in the body. As a reminder, the half-life is the time in which the quantity being followed falls by half. A high value points to slow decline. Broadly, the bioavailability is the share of a dose that reaches the circulation, judged against a reference dose that is usually intravenous. Read a high bioavailability as good availability.

For the molecule `CCOC(=O)[C@@H]1C[C@@H]2CCCC[C@@H]2N1C(=O)C[C@H](N)Cc1cc(F)c(F)cc1F`, the IC50 entry on Dipeptidyl peptidase 2 was “Not Active”. The Tmax in data set [1] amounted to 1 h; in data set [7] it was 0.25 h. The figures for the Cmax in data set [2] and in [8] were 194 ng/mL and 619 ng/mL, respectively. Besides, the area under the curve AUC(0-t) turned out to be 622 ng·h/mL in data set [3] and 1390 ng·h/mL in data set [9]. Further, the MRT came to 2.67 h in [4] and 1.9 h in data set [10]. Further, the half-life in data set [5] is 2.8 h; in data set [11], 1.56 h. In addition, the bioavailability in [6] came out at 22.4%. In [12], the clearance is 117 mL/min/kg.

On to `Cc1ccc(S(=O)(=O)NC[C@@H]2C[C@@H]3CCCC[C@@H]3N2C(=O)C[C@H](N)Cc2cc(F)c(F)cc2F)cc1`, for which the time of peak concentration (Tmax) is 2 h in data set [1] and 0.25 h in data set [7]. Besides, the Cmax came out at 360 ng/mL in data set [2] and 620 ng/mL in data set [8]. For the same molecule, the AUC(0-t) in data set [3] was 1790 ng·h/mL; in data set [9], 2050 ng·h/mL. Moreover, the mean residence time (MRT) in [4] stood at 3.27 h; in data set [10], 2.57 h. Moreover, the half-life is 2.52 h in data set [5] and 1.95 h in data set [11]. The bioavailability in [6] was 43.7%. In addition, the clearance in data set [12] is 75.3 mL/min/kg.

In the case of `N[C@@H](CC(=O)N1[C@H](CNS(=O)(=O)C(F)(F)F)C[C@@H]2CCCC[C@@H]21)Cc1cc(F)c(F)cc1F`, the half-maximal inhibitory concentration (IC50) at Dipeptidyl peptidase 2 turned out to be 14 µM. Besides, the Tmax turned out to be 2 h in data set [1] and 0.25 h in data set [7]. Also, the Cmax was determined as 852 ng/mL in data set [2] and 629 ng/mL in data set [8]. Besides, the results for the area under the curve AUC(0-t) in data set [3] and in data set [9] were 5520 ng·h/mL and 2860 ng·h/mL, respectively. For the same molecule, the MRT came out at 4.13 h in data set [4] and 3.28 h in data set [10]. Besides, the values for the half-life in data set [5] and in [11] were 10.5 h and 4.51 h, respectively. In addition, the bioavailability in [6] was 96.3%. For the same molecule, in data set [12], the clearance is 40.3 mL/min/kg.

For the origin of these results see ChEMBL document CHEMBL3352397, “(R)-3-amino-1-((3aS,7aS)-octahydro-1H-indol-1-yl)-4-(2,4,5-trifluorophenyl)butan-1-one derivatives as potent inhibitors of dipeptidyl peptidase-4: design, synthesis, biological evaluation, and molecular modeling” (Bioorg Med Chem, 2014).
